Test [1] deals with tobacco cutworm (Spodoptera litura). Nature of the test: Test Example 1: mortality of third-instar larvae of tobacco cutworm on cabbage, 3 days. As to conditions: 72 h. It is filed as in vivo. The procedure:
Ten third-instar larvae of tobacco cutworm (Spodoptera litura) were placed on a cabbage (one-month-old seedling) planted in a pot, and a 50% emulsion of the compound to be tested was diluted to a specified concentration and applied to the leaves of the plant to fully wet them. The test compound of each specified concentration was tested on two pots.

The subject of test [2] is green rice leafhopper (Nephotettix cincticeps). Put plainly: Test Example 2: mortality of female adults of green rice leafhopper on paddy rice, 3 days. It is filed as in vivo. As to conditions: 72 h. The procedure: An emulsion of specified concentration was prepared from a 50% wettable powder of the compound to be tested and applied to the leaves of paddy rice (one-month-old seedlings) planted in a pot to fully wet the leaves. After the emulsion had been dried, the pot was covered with a net cage, into which 10 female adults of green rice leafhopper (Nephotettix cincticeps) were released. The compound of each specified concentration was tested on two pots.

Where [3] appears, read: 125 ppm active ingredient, 3 days, read-out: Mortality.
The mark [4] stands for this setting: 250 ppm active ingredient, 3 days, read-out: Mortality.
Where [5] appears, read: 500 ppm active ingredient, 3 days, read-out: Mortality.
Where [6] appears, read: 1000 ppm active ingredient, 3 days, read-out: Mortality.
Setting [7] is: 200 ppm active ingredient, 3 days, read-out: Mortality.
Setting [8] is: 400 ppm active ingredient, 3 days, read-out: Mortality.
[9] abbreviates: 800 ppm active ingredient, 3 days, read-out: Mortality.

In patent US4540708A, “Sulfenyl carbamate derivatives and insecticidal compositions containing the same” (priority 1982, dated 1985) one finds mortality data, which are given here for 18 compounds.

The structures appear in SMILES notation. Read-outs that look alike come from different tables or passages of the source.

`COC(=O)CCN(CCCCOc1ccccc1)SN(C)C(=O)ON=C(C)SC` [Example 25]: the mortality at 125 ppm in test [1] (setting [3]) worked out at 80%. Also, the mortality at 250 ppm in test [1] (setting [4]) turned out to be 90%. The mortality at 500 ppm in test [1] (setting [5]) is 100%. Besides, the mortality at 1000 ppm in test [1] (setting [6]) worked out at 100%. Also, the mortality at 200 ppm in test [2] (setting [7]) was 85%. For the same compound, the mortality at 400 ppm in test [2] (setting [8]) worked out at 90%. Further, the mortality at 800 ppm in test [2] (setting [9]) worked out at 100%.

Turning to `COC(=O)CCN(CCOC(C)C)SN(C)C(=O)Oc1cccc2c1OC(C)(C)C2` [Example 9], in test [1], the mortality at 125 ppm was 40%, the mortality at 250 ppm came to 60%, the mortality at 500 ppm worked out at 80% and the mortality at 1000 ppm turned out to be 90%. In test [2], this compound came in with a mortality at 200 ppm of 75%, a mortality at 400 ppm of 90% and a mortality at 800 ppm of 100%.

In the case of `COCCN(CCC(=O)OC)SN(C)C(=O)ON=C(C)SC` [Example 3, S-methyl N-[{N-methyl-N-(N-methoxyethyl-N-methoxycarbonylethylaminosulfenyl)carbamoyl}oxy]-thioacetimidate], the mortality at 125 ppm in test [1] (setting [3]) is 55%. Further, the mortality at 250 ppm in test [1] (setting [4]) came to 70%. Moreover, the mortality at 500 ppm in test [1] (setting [5]) turned out to be 85%. Besides, the mortality at 1000 ppm in test [1] (setting [6]) turned out to be 90%. For the same compound, the mortality at 200 ppm in test [2] (setting [7]) came out at 65%. Also, the mortality at 400 ppm in test [2] (setting [8]) stood at 90%. Besides, the mortality at 800 ppm in test [2] (setting [9]) was 100%.

In test [1], `COC(=O)CCN(CCOC1CCCCC1)SN(C)C(=O)Oc1cccc2c1OC(C)(C)C2` [Example 10] came in with a mortality at 125 ppm of 35%, a mortality at 250 ppm of 50%, a mortality at 500 ppm of 70% and a mortality at 1000 ppm of 85%. In addition, in test [2], the mortality at 200 ppm came to 65%, the mortality at 400 ppm turned out to be 85% and the mortality at 800 ppm came out at 100%.

Turning to `CC(C)OCCCN(CCC#N)SN(C)C(=O)Oc1cccc2c1OC(C)(C)C2` [Example 11], in test [1], the mortality at 125 ppm is 35%, the mortality at 250 ppm was 50%, the mortality at 500 ppm worked out at 70% and the mortality at 1000 ppm was found to be 80%. For the same compound, in test [2], the mortality at 200 ppm came to 70%, the mortality at 400 ppm stood at 90% and the mortality at 800 ppm was found to be 100%.

Turning to `CCOC(=O)CN(CCOC)SN(C)C(=O)ON=C(C)SC` [Example 19], in test [1] (setting [3]), the mortality at 125 ppm amounted to 90%. Moreover, in test [1] (setting [4]), the mortality at 250 ppm was 100%. Further, in test [1] (setting [5]), the mortality at 500 ppm was found to be 100%. For the same compound, the mortality at 1000 ppm in test [1] (setting [6]) was found to be 100%. Moreover, in test [2] (setting [7]), the mortality at 200 ppm was determined as 90%. Further, the mortality at 400 ppm in test [2] (setting [8]) stood at 100%. In addition, the mortality at 800 ppm in test [2] (setting [9]) is 100%.

Turning to `COC(=O)CCN(CCCCCOc1ccccc1)SN(C)C(=O)Oc1cccc2c1OC(C)(C)C2` [Example 15], in test [1], the mortality at 125 ppm stood at 40%, the mortality at 250 ppm is 50%, the mortality at 500 ppm came out at 70% and the mortality at 1000 ppm stood at 80%. In test [2], this compound returned a mortality at 200 ppm of 65%, a mortality at 400 ppm of 80% and a mortality at 800 ppm of 100%.

Turning to `CCCCOC(=O)CCN(CCOC)SN(C)C(=O)ON=C(C)SC` [Example 24], in test [1] (setting [3]), the mortality at 125 ppm worked out at 80%. Further, the mortality at 250 ppm in test [1] (setting [4]) is 95%. In addition, the mortality at 500 ppm in test [1] (setting [5]) is 100%. Also, in test [1] (setting [6]), the mortality at 1000 ppm is 100%. In test [2] (setting [7]), the mortality at 200 ppm amounted to 85%. For the same compound, in test [2] (setting [8]), the mortality at 400 ppm amounted to 95%. The mortality at 800 ppm in test [2] (setting [9]) stood at 100%.

As to `COC(=O)CCN(CCCOc1ccccc1)SN(C)C(=O)ON=C(C)SC` [Example 20], the mortality at 125 ppm in test [1] (setting [3]) is 90%. In test [1] (setting [4]), the mortality at 250 ppm is 95%. Further, the mortality at 500 ppm in test [1] (setting [5]) came out at 100%. In test [1] (setting [6]), the mortality at 1000 ppm was 100%. For the same compound, the mortality at 200 ppm in test [2] (setting [7]) came to 80%. The mortality at 400 ppm in test [2] (setting [8]) is 90%. The mortality at 800 ppm in test [2] (setting [9]) came to 100%.

For `CSC(C)=NOC(=O)N(C)SN(CCC#N)CCCOC(C)C` [Example 23], the mortality at 125 ppm in test [1] (setting [3]) turned out to be 85%. Besides, the mortality at 250 ppm in test [1] (setting [4]) worked out at 95%. For the same compound, in test [1] (setting [5]), the mortality at 500 ppm worked out at 100%. The mortality at 1000 ppm in test [1] (setting [6]) turned out to be 100%. Besides, the mortality at 200 ppm in test [2] (setting [7]) came to 80%. Also, the mortality at 400 ppm in test [2] (setting [8]) was 95%. Also, in test [2] (setting [9]), the mortality at 800 ppm was 100%.

As for `COC(=O)CCN(CCCOc1ccccc1)SN(C)C(=O)Oc1cccc2c1OC(C)(C)C2` [Example 7], in test [1], the mortality at 125 ppm turned out to be 40%, the mortality at 250 ppm stood at 60%, the mortality at 500 ppm was 75% and the mortality at 1000 ppm was found to be 85%. In test [2], this compound gave a mortality at 200 ppm of 60%, a mortality at 400 ppm of 80% and a mortality at 800 ppm of 100%.

In test [1], `COC(=O)CCN(CCOCc1ccccc1)SN(C)C(=O)Oc1cccc2c1OC(C)(C)C2` [Example 13] returned a mortality at 125 ppm of 40%, a mortality at 250 ppm of 55%, a mortality at 500 ppm of 70% and a mortality at 1000 ppm of 85%. In test [2], this compound registered a mortality at 200 ppm of 65%, a mortality at 400 ppm of 85% and a mortality at 800 ppm of 100%.

For `COCCN(CCC#N)SN(C)C(=O)ON=C(C)SC` [Example 17], the mortality at 125 ppm in test [1] (setting [3]) came out at 85%. The mortality at 250 ppm in test [1] (setting [4]) is 95%. Also, the mortality at 500 ppm in test [1] (setting [5]) was found to be 100%. Also, in test [1] (setting [6]), the mortality at 1000 ppm turned out to be 100%. Moreover, in test [2] (setting [7]), the mortality at 200 ppm was found to be 80%. Also, in test [2] (setting [8]), the mortality at 400 ppm was determined as 95%. Besides, the mortality at 800 ppm in test [2] (setting [9]) is 100%.

For the compound `COC(=O)CCN(CCOC(C)C)SN(C)C(=O)ON=C(C)SC` [Example 21], the mortality at 125 ppm in test [1] (setting [3]) came to 100%. Also, the mortality at 250 ppm in test [1] (setting [4]) is 100%. In addition, the mortality at 500 ppm in test [1] (setting [5]) is 100%. Further, the mortality at 1000 ppm in test [1] (setting [6]) is 100%. The mortality at 200 ppm in test [2] (setting [7]) amounted to 85%. The mortality at 400 ppm in test [2] (setting [8]) was 100%. For the same compound, in test [2] (setting [9]), the mortality at 800 ppm is 100%.

In test [1], `COC(=O)CCN(CCCCOc1ccccc1)SN(C)C(=O)Oc1cccc2c1OC(C)(C)C2` [Example 14] yielded a mortality at 125 ppm of 35%, a mortality at 250 ppm of 50%, a mortality at 500 ppm of 70% and a mortality at 1000 ppm of 80%. In test [2], this compound returned a mortality at 200 ppm of 65%, a mortality at 400 ppm of 85% and a mortality at 800 ppm of 100%.

On to `CCCCOC(=O)CCN(CCOC)SN(C)C(=O)Oc1cccc2c1OC(C)(C)C2` [Example 12], for which, in test [1], the mortality at 125 ppm came out at 40%, the mortality at 250 ppm was 55%, the mortality at 500 ppm was determined as 75% and the mortality at 1000 ppm came to 85%. Also, in test [2], the mortality at 200 ppm is 70%, the mortality at 400 ppm stood at 85% and the mortality at 800 ppm is 100%.

For `COCCN(CC#N)SN(C)C(=O)ON=C(C)SC` [Example 18], the mortality at 125 ppm in test [1] (setting [3]) worked out at 100%. Besides, in test [1] (setting [4]), the mortality at 250 ppm stood at 100%. In test [1] (setting [5]), the mortality at 500 ppm was 100%. Further, the mortality at 1000 ppm in test [1] (setting [6]) was 100%. For the same compound, the mortality at 200 ppm in test [2] (setting [7]) came out at 80%. In test [2] (setting [8]), the mortality at 400 ppm worked out at 95%. For the same compound, the mortality at 800 ppm in test [2] (setting [9]) came to 100%.

As for `CNC(=O)ON=C(C)SC` [Control*], the mortality at 125 ppm in test [1] (setting [3]) was determined as 85%. Besides, in test [1] (setting [4]), the mortality at 250 ppm came out at 90%.
